From US20260048155A1, “BIOCOMPATIBLE PARAHYDROGEN HYPERPOLARIZED SOLUTIONS BY PRECIPITATION AND RE-DISSOLUTION” (North Carolina State University, priority 2022, published 2026)

Assay: Titration study of sodium pyruvate solubility / precipitation from methanol by added solvent
Type: physicochemical
Experimental: Precipitating and filtering of pyruvate from solutions using thermally polarized natural-abundance sodium pyruvate: Considering the finding of low pyruvate solubility herein, ethanol was an obvious first choice as the precipitating solvent. […] Other candidates (acetone, 1-propanol, and ethyl acetate) were tested next. All three solvents mixed with methanol and dissolved 6 mM of SABRE catalyst well. […] For each of the three solvents (FIG. 11) eight 500-μL batches of methanol containing different concentrations of pyruvate were prepared (cpyr∈[80, 60, 40, 30, 20, 8, 4, 2] mM). Then, 9.5 mL of the respective precipitating solvent were added to each sample. In all 80 mM samples, prominent and almost instantaneous precipitation was observed as the solutions lost transparency and became milky. For 1-propanol, acetone, and ethyl acetate, precipitation was visible for all mixtures with 40 mM, 20 mM, and 4 mM or more initial concentration of pyruvate, respectively. Additionally, as ethyl acetate and water are immiscible, a later purification of this solvent was expected to be advantageous (see below). Based on these observations, the rest of the study was continued with acetone and ethyl acetate.

precipitation on ethanol addition (9-fold volume of ethanol added to 80 mM in methanol): no precipitation was detected | initial pyruvate concentration in methanol at which precipitation was visible (500 μL methanol + 9.5 mL 1-propanol): ≥ 40 mM | initial pyruvate concentration in methanol at which precipitation was visible (500 μL methanol + 9.5 mL acetone): ≥ 20 mM | initial pyruvate concentration in methanol at which precipitation was visible (500 μL methanol + 9.5 mL ethyl acetate): ≥ 4 mM
Compound: CC(=O)C(=O)[O-].[Na+] [sodium pyruvate]
